The subject of one series is THP-1 cells. The series is described as follows: FITC-Annexin V / propidium iodide flow cytometry (apoptosis). Format: cell-based. As to conditions: 16 hours. The procedure: THP-1 cells were treated with DMSO, 0.5 or 1 uM of LOR-253 for 16 hours. Cells were washed twice with cold PBS and resuspended Annexin V binding buffer. 1×10^5 cells in 100 μL were stained with FITC-Annexin V and propidium iodide, and incubated for 15 minutes at room temperature. After staining, 400 ul of binding buffer was added and the cells were kept on ice until analyzed on a BD FACSCanto flow cytometer.
For orientation: Flow cytometry measures light scatter and fluorescence of single cells or particles in a stream.

In a further series the test system is KLF4 protein. The series is described as follows: Pharmacodynamic response, KLF4 protein level in tumors. Format: in vivo. As to conditions: mice; 1, 5 and 15 mg/kg for 5 consecutive days; 16 hours after last dose. As to the method:
To study the pharmacodynamic (PD) responses, mice were treated for 5 consecutive days with 1, 5, and 15 mg/kg LOR-253. Tumors were measured 16 hours after the last dose, and the KLF-4 protein level was measured.

The subject of series [1] is THP1. The series is described as follows: Cell cycle analysis, propidium iodide flow cytometry. Format: cell-based. As to conditions: 0.5 μM, 16 hours. The procedure:
(§1) THP1 and HL-60 AML cell lines were treated with DMSO (vehicle control) or 0.5 μM LOR-253 for 16 hours. Cells were washed once in PBS+1% FCS and fixed using ice cold 70% ethanol overnight. Fixed cells were washed twice, resuspended in PI/RNaseA solution, containing 20 μg/mL propidium iodide and 250 μg/mL RNaseA, and stained for 30 minutes at 37° C. Stained cells were analyzed using a BD FACSCalibur flow cytometer.

Series [2] has as its system HL-60. Described as above. The class given is cell-based. As to conditions: 0.5 μM, 16 hours. The procedure:
as §1

For series [3], the system named is THP1. The series is described as follows: Caspase 3 activity, EnzChek Caspase-3 Assay Kit. As to conditions: 0.5 μM, 48 hours. The class given is cell-based. The procedure: (§2) THP1 and HL-60 cells were treated with DMSO (vehicle control) or 0.5 μM LOR-253 for 48 hours. Cell lysates were collected using a 1% Triton-X100 lysis. Caspase 3 activity was measured using EnzChek Caspase-3 Assay Kit #1 (Life Technologies) with 5 μg of cell lysastes according to manufacturer's protocol.

Series [4] deals with HL-60. Briefly: Caspase 3 activity, EnzChek Caspase-3 Assay Kit. Format: cell-based. As to conditions: 0.5 μM, 48 hours. The procedure: as §2
The test system of series [5] is THP1. Briefly: KLF4/p21 induction, quantitative RT-PCR. Format: cell-based, human. As to conditions: 0.5 μM, 16 hours. As to the method: (§3) To determine if KLF4 and/or p21 expressions are induced by LOR-253, AML cells (THP1, HL-60) were treated with DMSO (vehicle control) or 0.5 μM LOR-253 for 16 hours. Total RNA was extracted using the TRIzol Plus RNA Purification kit (Ambion, Life Technologies), according to the manufacturer's instructions. First strand cDNA was synthesized from 1-2 ug total RNA using random hexamer primers (Invitrogen) and the SuperScript II Reverse Transcriptase kit (Invitrogen). Quantitative RT-PCR was performed in the ABI Prism 7000 Sequence Detection System using cDNAs and human TaqMan Gene Expression Assay primer/probe sets for Krüppel-like factor 4 (KLF4), cyclin-dependent kinase inhibitor 1A (p21) and the ABI TaqMan Universal PCR master mix protocol. Gene expression was normalized with β-actin gene expression in the same sample, and fold changes in KLF4 or p21 were expressed relative to the corresponding expression level in the DMSO treated samples using the comparative CT method.

In series [6] the test system is HL-60. The series is described as follows: KLF4/p21 induction, quantitative RT-PCR. Particulars: 0.5 μM, 16 hours. The class given is cell-based, human. The procedure:
as §3

Series [7] can be described thus: Repeat-dose toxicity study. The class given is in vivo. Particulars: dogs, highest dose tested.
The next series has as its system NOMO-1. The series is described as follows: XTT antiproliferative assay. The class given is cell-based. As to conditions: Homo sapiens, 120 h; NOMO-1, Acute myeloid leukemia; 5 days incubation. As to the method:
(§4) Antiproliferative activity of LOR-253 was determined by XTT assay as follows. Adherent cells (2×10^3/well) in 100 μL of growth medium were seeded in 96-well cell culture plates and incubated overnight at 37° C. The medium was removed and replaced with a total volume of 100 μL growth medium containing LOR-253 (or 0.1% DMSO vehicle control), as described in the respective experiments. Suspension cells were plated (4-6×10^3/well) in 50 μL growth medium, and 50 μL growth medium containing LOR-253 (or 0.1% DMSO vehicle control) was added to each well. After incubation of the cells at 37° C. for 5 days, cell viability was quantitated with the use of sodium 3′-[1-(phenylamino-carbonyl)-3,4-tetrazolium}-bis(4-methoxy-6-nitro)benzene sulfonic acid hydrate (XTT) colorimetric assay (Roche). XTT labeling reagent (1 mg/mL) was mixed with electron-coupling reagent, following the manufacturer's instructions, and 50 μL of the mixture was added directly to the cells. The plates were further incubated at 37° C. for 4 h, and the absorbance of each well was measured at 490 nm with a multiwell spectrophotometer (Bio-Tek Instruments Inc.). The data were adjusted relative to the blank and expressed as a percentage of cell growth compared with the vehicle control. (Ref. Huesca et al., Mol Cancer Ther. 2009. 8:2586-96; Lorus publication on LOR-133)
A general note: Formazan colour is commonly taken as a measure of viable cells.

For another series, the system named is Jurkat. Briefly: XTT antiproliferative assay. The class given is cell-based. As to conditions: Homo sapiens, 120 h, Acute lymphoblastic leukemia, 5 days incubation. The procedure: as §4
Another series has as its system Mino. The series is described as follows: XTT antiproliferative assay. Format: cell-based. As to conditions: Homo sapiens, 120 h, Non-Hodgkin's Lymphoma, 5 days incubation. As to the method: as §4
Another series has as its system HuNS1. Briefly: XTT antiproliferative assay. Particulars: 120 h; HuNS1, Multiple myeloma; 5 days incubation. Format: cell-based. As to the method:
as §4

For another series, the system named is MOLM13 (CD47+). Briefly: XTT antiproliferative assay. The class given is cell-based. As to conditions: Homo sapiens, MOLM-13, 120 h, Acute myeloid leukemia, 5 days incubation. The procedure:
as §4

For another series, the system named is CCRF-CEM. Briefly: XTT antiproliferative assay. Particulars: Homo sapiens, 120 h, Acute lymphoblastic leukemia, 5 days incubation. The class given is cell-based. As to the method: as §4
The subject of another series is K562. Briefly: XTT antiproliferative assay. As to conditions: Homo sapiens, 120 h; K562, Chronic Myelogenous Leukemia; 5 days incubation. The class given is cell-based. The procedure: as §4
The test system of the next series is cancer cell lines. The series is described as follows: XTT antiproliferative assay, panel of cancer cell lines (FIG. 3). Format: cell-based. As to the method:
FIG. 3 is a graphical representation of the effect of LOR-253 on proliferation of a number of cancer cell lines in vitro. Cells of various cancer cell lines were incubated with LOR-253 as described in the Examples, and the […] concentrations of various cell lines for 50% of maximal inhibition of cell proliferation (GI50) by LOR-253 were determined and shown in the figure.
as §4, with “Suspension cells were plated (4-6×10^3/well) in 50 μL growth medium, and 50 μL growth medium containing LOR-253 (or 0.1% DMSO vehicle control) was added to each well.” left out, “XTT labeling reagent (1 mg/mL) was mixed with electron-coupling reagent, following the manufacturer's instructions, and 50 μL of the mixture was added directly to the cells.” left out, “(Ref. Huesca et al., Mol Cancer Ther. 2009. 8:2586-96; Lorus publication on LOR-133)” left out

On to `Cc1[nH]c2ccc(F)cc2c1-c1nc2c3cccnc3c3ncccc3c2[nH]1` [LOR-253], for which, in the series on THP-1 cells (0.5 or 1 uM), the “Annexin V staining” value is “elevated Annexin V staining”. Moreover, the “early apoptotic population (Q3: Annexin V+/PI−)” value in the series with THP-1 cells (increasing concentration (0.5 to 1 uM)) is listed as “increase in the early apoptotic population”. The “average KLF4 protein levels in tumors” value in the series on KLF4 protein is reported as “increased in a dose-dependent manner”. The cell cycle effect result with THP1 [1] and in the series on HL-60 [2] was “G1/S cell cycle arrest” throughout. Further, the “Caspase 3 activity” value in the series with THP1 [3] and with HL-60 [4] was “elevated Caspase 3 activity” in each case. Moreover, the “KLF4 expression (fold change vs DMSO)” value in the series on THP1 [5] and in the series on HL-60 [6] was “increased expression” in each case. Moreover, the “p21 expression (fold change vs DMSO)” value in the series with THP1 [5] and in the series on HL-60 [6] was “increased expression” each time. Further, the cardiovascular effects entry in series [7] is listed as “no treatment-related cardiovascular effects”. Besides, the IC50 (in general, the point on the concentration scale where inhibition reaches its midpoint) in the series with NOMO-1 is 121 nM; in the series with Jurkat, 71 nM; in the series on Mino, 140 nM; in the series on HuNS1, 72 nM; in the series with MOLM13 (CD47+), 130 nM; with CCRF-CEM, 39 nM. This compound also returned an IC50 in the series on K562 of 250 nM. The “sensitivity of cell lines to LOR-253” value in the series on cancer cell lines (cell lines of lung, bladder, colon, prostate cancer, melanoma and breast cancer) is recorded as “less sensitive”; in the series on cancer cell lines (leukemia/lymphoma incl. AML cell lines (HL-60, MV 411, THP-1, HEL92.1.7, CCRF-CEM, MOLT-4, Jurkat, K-562, Ramos, Raji)), “most sensitive”.

The record behind these values is patent publication US20150104392A1, “COMPOSITIONS, BIOMARKERS AND THEIR USE IN THE TREATMENT OF CANCER” (Aptose Biosciences Inc., priority 2013, published 2015).
